Common to all, as to type: cell-based
The test system of assay [1] is human mast cell line LAD 2. Kind of assay: Expression of TNF-α, CCL-2 or CCL-5 mRNA in LAD 2 (TaqMan PCR). The following applies: various TGR12 ligands experiment, 1 μM, two hours after stimulation. Here is the method: Human mast cell line LAD 2 was cultured in StemPro-34 medium (Invitrogen) supplemented with 100 ng/mL of stem cell factor (Immuno-Biological Laboratories Co., Ltd.). […] A 750 μL aliquot was inoculated on a 24-well plate, which was then allowed to stand in a CO2 incubator at 37° C. for 30 minutes. […] The assay was performed for the respective reaction conditions in n=3. The plate was ice-chilled 0.5, 2, 8 and 24 hours after to stop the activation of LAD 2. After centrifugation at 300×g for 5 minutes, total RNA was extracted from the precipitated cells using RNeasy Mini Kit (Qiagen) according to the protocol attached. Further in the experiments where expression levels upon stimulation by various TGR12 ligands were analyzed, LAD 2 was centrifuged at 300×g for 5 minutes and the cells precipitated were counted and suspended in the medium at 1.33×10^6 cells/mL. A 750 μL aliquot was inoculated on a 24-well plate, which was allowed to stand in a CO2 incubator at 37° C. for 30 minutes. […] The assay was performed for the respective reaction conditions in n=3. Two hours after, the plate was ice-chilled to stop the activation of LAD 2. After centrifugation at 300×g for 5 minutes, total RNA was extracted from the precipitated cells using RNeasy Mini Kit (Qiagen) according to the protocol attached. The total RNA obtained as described above was concentrated using ethachinmate according to the protocol attached and dissolved in RNase-free H2O, Next, using the solution corresponding to […] of total RNA, reverse transcription was performed by the following procedure using SuperScript II reverse transcriptase (Invitrogen) to synthesize single stranded cDNA. To the total RNA solution, 0.1 μg of random primer (Invitrogen) and 1 μL of 10 mM dNTP (Invitrogen) were added and then RNase-free H2O was added to make the whole volume 12 μL. The mixture was then incubated at 70° C. for 10 minutes and ice-cooled for a minute. After 4 μL of 5× First-Strand Buffer (attached to SuperScript II reverse transcriptase), 2 μL of 0.1M DTT (attached to SuperScript II reverse transcriptase), 1 μL of RNaseOUT (Invitrogen) and 1 μL of SuperScript II reverse transcriptase were added, the mixture was incubated at 42° C. for 50 minutes, then at 70° C. for 15 minutes and ice-cooled for 5 minutes. The thus obtained cDNA was purified using ethachinmate in accordance with the protocol attached and dissolved in Tris-EDTA buffer (Fluka).
In TaqMan PCR below, hTNFalpha-tF (SEQ ID NO: 33) and hTNFalpha-tR (SEQ ID NO: 34) were used as primers for human TNF-α quantification, hTNFalpha-tP (SEQ ID NO: 35) as a probe and hTNFalpha-standard (SEQ ID NO: 36) as a standard. For human CCL-5 quantification, hCCL5-tF (SEQ ID NO: 37) and hCCL5-tR (SEQ ID NO: 38) were used as primers, hCCL5-tP (SEQ ID NO: 39) as a probe and hCCL5 standard (SEQ ID NO: 40) as a standard. For human CCL-2 quantification, hCCL2-tF (SEQ ID NO: 41) and hCCL2-tR (SEQ ID NO: 42) were used as primers, hCCL2-tP (SEQ ID NO: 43) as a probe and hCCL2 standard (SEQ ID NO: 44) as a standard.
TaqMan PCR was performed in n=2 for each sample in a liquid volume of 15 μl using 12.5 ng of total RNA as a template. The reaction solution was composed of 900 nM primer, 250 nM probe and ½ volume of TaqMan Universal PCR Master Mix (Applied Biosystems). The reaction and analysis were performed by ABI PRISM 7900HT Sequence Detection System (Applied Biosystems). After keeping warm at 50° C. for 2 minutes and then at 95° C. for 10 minutes, the reaction cycle was set in one cycle to include 95° C. for 15 seconds and 60° C. for 1 minute and repeating the cycle 40 times.
(In general: Real-time PCR tracks product formation cycle by cycle.)

Assay [2] addresses T1, human TGR12 (Homo sapiens, UniProt Q96LB1).
T1 construct: expressed in transfected cells
T1 sequence (Q96LB1 1-330): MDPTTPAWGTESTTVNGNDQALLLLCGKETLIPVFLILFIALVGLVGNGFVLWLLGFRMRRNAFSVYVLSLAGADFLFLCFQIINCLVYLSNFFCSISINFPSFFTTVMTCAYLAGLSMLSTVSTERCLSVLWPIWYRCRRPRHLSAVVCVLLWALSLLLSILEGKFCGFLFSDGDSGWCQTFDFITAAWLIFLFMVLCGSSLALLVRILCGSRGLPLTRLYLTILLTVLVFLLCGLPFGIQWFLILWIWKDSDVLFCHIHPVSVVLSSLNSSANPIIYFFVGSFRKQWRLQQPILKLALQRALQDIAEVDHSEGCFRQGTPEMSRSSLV
Kind of assay: Intracellular calcium increasing activity in RBL2H3-TGR12 (FLIPR). Here is the method: (§1) RBL-2H3 (hereinafter RBL2H3) was incubated in α-MEM (Invitrogen) supplemented with 10% fetal calf serum. Vector plasmid pcDNA3.1 for animal cell expression, in which the nucleotide sequence containing the initiation codon to the termination codon of human TGR12 (DNA having the nucleotide sequence represented by SEQ ID NO: 32) was incorporated, was stably expressed in RBL-2H3 to establish human TGR12-expressed RBL-2H3 cell line (hereinafter RBL2H3-TGR12). RBL2H3-TGR12 was incubated in α-MEM (Invitrogen) supplemented with 10% fetal calf serum and 200 μg/mL of Geneticin.
(§2) The intracellular calcium increasing activity was assayed as follows. RBL2H3 and RBL2H3-TGR12 were plated in a 96-well plate at a density of 40,000 cells/well and incubated overnight. The medium was then discarded and 100 μL/well of 4 μM Fluo3-AM (Dojin Kagaku)-containing assay buffer [Hank's Balanced Salt Solution (Invitrogen), 20 mM HEPES (Dojin Kagaku) and 2.5 mM Probenecid (Sigma)] was added. The mixture was allowed to stand for an hour at 37° C. Various TGR12 (Peptide Institute, Inc.) or calcium ionophore A23187 (Wako Pure Chemical) was diluted in 0.05% CHAPS-containing assay buffer. After the cells were washed with the assay buffer, fluorescence emitted with changes in intracellular calcium was measured using FLIPR (Molecular Device). A sample, 50 μL, was added at a rate of 50 μL/sec. 10 seconds after initiation of the assay. Fluorescence was measured every 1 second during the first 60 seconds and every 6 seconds during the next 120 seconds. The highest fluorescence intensity during 3 minutes was made the maximum activity under the stimulation conditions, which was taken as an average of 3 wells. The EC50 values were calculated using Graphpad PRISM 4 (Graphpad Software).
Background: Calcium flux is commonly read through the fluorescence of an indicator in the cells.

The subject of assay [3] is RBL-2H3. The assay can be described thus: Intracellular calcium increasing activity in RBL2H3 (FLIPR). The arrangement: unit not given here. Here is the method:
as §1, §2

On to `CC[C@H](C)[C@H](NC(=O)CNC(=O)[C@H](CC(=O)O)NC(=O)[C@H](CO)NC(=O)[C@@H](N)Cc1c[nH]cn1)C(=O)N[C@@H](Cc1ccccc1)C(=O)N[C@H](C(=O)N[C@@H](CC(=O)O)C(=O)N[C@@H](CO)C(=O)N[C@@H](Cc1ccc(O)cc1)C(=O)N[C@@H](CO)C(=O)N[C@@H](CCCNC(=N)N)C(=O)N[C@@H](Cc1ccc(O)cc1)C(=O)N[C@@H](CCCNC(=N)N)C(=O)N[C@@H](CCCCN)C(=O)N[C@@H](CCC(N)=O)C(=O)N[C@@H](CCSC)C(=O)N[C@@H](C)C(=O)N[C@H](C(=O)N[C@@H](CCCCN)C(=O)N[C@@H](CCCCN)C(=O)N[C@@H](Cc1ccc(O)cc1)C(=O)N[C@@H](CC(C)C)C(=O)N[C@@H](C)C(=O)N[C@@H](C)C(=O)N[C@H](C(=O)N[C@@H](CC(C)C)C(N)=O)C(C)C)C(C)C)[C@@H](C)O` [PACAP-27], for which the “expression level of CCL-2 in LAD 2” value in assay [1] came out at 3809873 copies. The “expression level of CCL-5 in LAD 2” value in assay [1] came to 48242 copies. For the same compound, the “expression level of TNF-α in LAD 2” value in assay [1] was 219597 copies. For the same compound, the “maximum activity in the calcium increasing effect” value in assay [2] (RBL2H3-TGR12, 1 nM) was found to be 40; in assay [2] (RBL2H3-TGR12, 10 nM), 29; in assay [2] (RBL2H3-TGR12, 100 nM), 5300; in assay [2] (RBL2H3-TGR12, 1 μM), 11494; in assay [2] (RBL2H3-TGR12, 10 μM) it was 12667; in assay [3] (RBL2H3, 1 nM) it was 47. Besides, the “maximum activity in the calcium increasing effect” value in assay [3] (RBL2H3, 10 nM) turned out to be 37; in assay [3] (RBL2H3, 100 nM), 63; in assay [3] (RBL2H3, 1 μM), 59; in assay [3] (RBL2H3, 10 μM), 45.

Consider `CC(C)C[C@H](NC(=O)[C@H](C)NC(=O)[C@H](Cc1c[nH]c2ccccc12)NC(=O)[C@H](CCCCN)NC(=O)[C@H](CC(N)=O)NC(=O)[C@H](Cc1c[nH]c2ccccc12)NC(=O)[C@H](CCCCN)NC(=O)[C@H](CCCCN)NC(=O)[C@H](CCCNC(=N)N)NC(=O)[C@@H](N)Cc1ccccc1)C(=O)N[C@@H](CO)C(=O)N[C@@H](CCCNC(=N)N)C(N)=O` [PAMP-12, proadrenomedullin N-terminal 20 peptide (9-20)], for which the “expression level of CCL-2 in LAD 2” value in assay [1] was determined as 1143248 copies. The “expression level of CCL-5 in LAD 2” value in assay [1] was 34566 copies. Further, the “expression level of TNF-α in LAD 2” value in assay [1] is on record as 8918 copies. Moreover, the “maximum activity in the calcium increasing effect” value in assay [2] (RBL2H3-TGR12, 1 nM) was 41; in assay [2] (RBL2H3-TGR12, 10 nM) it was 2088; in assay [2] (RBL2H3-TGR12, 100 nM) it was 11110; in assay [2] (RBL2H3-TGR12, 1 μM), 12039; in assay [2] (RBL2H3-TGR12, 10 μM) it was 12331; in assay [3] (RBL2H3, 1 nM) it was 52. The “maximum activity in the calcium increasing effect” value in assay [3] (RBL2H3, 10 nM) came to 52; in assay [3] (RBL2H3, 100 nM), 35; in assay [3] (RBL2H3, 1 μM) it was 44; in assay [3] (RBL2H3, 10 μM), 43.

On to `CC[C@H](C)[C@H](NC(=O)[C@H](CO)NC(=O)[C@H](CC(N)=O)NC(=O)[C@H](CC(C)C)NC(=O)[C@H](Cc1ccc(O)cc1)NC(=O)[C@H](CCCCN)NC(=O)[C@H](CCCCN)NC(=O)[C@@H](NC(=O)[C@H](C)NC(=O)[C@H](CCSC)NC(=O)[C@H](CCC(N)=O)NC(=O)[C@H](CCCCN)NC(=O)[C@H](CCCNC(=N)N)NC(=O)[C@H](CC(C)C)NC(=O)[C@H](CCCNC(=N)N)NC(=O)[C@@H](NC(=O)[C@H](Cc1ccc(O)cc1)NC(=O)[C@H](CC(N)=O)NC(=O)[C@H](CC(=O)O)NC(=O)[C@@H](NC(=O)[C@H](Cc1ccccc1)NC(=O)[C@@H](NC(=O)[C@H](C)NC(=O)[C@H](CC(=O)O)NC(=O)[C@H](CO)NC(=O)[C@@H](N)Cc1c[nH]cn1)C(C)C)[C@@H](C)O)[C@@H](C)O)C(C)C)C(=O)N[C@@H](CC(C)C)C(=O)N[C@@H](CC(N)=O)C(N)=O` [VIP, vasoactive intestinal polypeptide], for which, in assay [1], the “expression level of CCL-2 in LAD 2” value was 3630286 copies, the “expression level of CCL-5 in LAD 2” value is 45015 copies and the “expression level of TNF-α in LAD 2” value turned out to be 176630 copies.

For the compound `CSCC[C@H](NC(=O)[C@H](CCCNC(=N)N)NC(=O)[C@@H](N)CC(=O)O)C(=O)N1CCC[C@H]1C(=O)N[C@H]1CSSC[C@@H](C(=O)N[C@@H](CCCCN)C(=O)O)NC(=O)[C@H](CO)NC(=O)[C@H](CO)NC(=O)[C@H](Cc2ccccc2)NC(=O)[C@H]([C@@H](C)O)NC(=O)[C@H](CCCCN)NC(=O)[C@H](Cc2c[nH]c3ccccc23)NC(=O)[C@H](Cc2ccccc2)NC(=O)[C@H](Cc2ccccc2)NC(=O)[C@H](CC(N)=O)NC(=O)[C@H](CCCNC(=N)N)NC1=O` [cortistatin-17], in assay [1], the “expression level of CCL-2 in LAD 2” value came to 2944622 copies. Also, in assay [1], the “expression level of CCL-5 in LAD 2” value is recorded as 47322 copies. Further, in assay [1], the “expression level of TNF-α in LAD 2” value is 163551 copies. The “maximum activity in the calcium increasing effect” value is recorded as −2 in assay [2] (RBL2H3-TGR12, 1 nM); 33 in assay [2] (RBL2H3-TGR12, 10 nM); 1574 in assay [2] (RBL2H3-TGR12, 100 nM); 11193 in assay [2] (RBL2H3-TGR12, 1 μM); 12762 in assay [2] (RBL2H3-TGR12, 10 μM); 67 in assay [3] (RBL2H3, 1 nM). For the same compound, the “maximum activity in the calcium increasing effect” value in assay [3] (RBL2H3, 10 nM) is 78; in assay [3] (RBL2H3, 100 nM) it was 54; in assay [3] (RBL2H3, 1 μM) it was 49; in assay [3] (RBL2H3, 10 μM), 52.

Values taken from patent publication US20100068208A1, “Degranulation inhibitor” (priority 2005, published 2010).
